According to patent publication US4567192A, “Acylaminophenol derivatives” (Sandoz Ltd., priority 1983, dated 1986):

Experiments:
[1] = Test I: arthritis pain test (method of A. W. Pircio et al.); format: in vivo; details: po
Excerpt: (I) The arthritis pain test (based on the method of A. W. Pircio et al., Eur. J. Pharmacol. 31, 207-215, 1975); and
(§1) As previously indicated, required daily dosages will depend inter al. on the particular compound of the invention employed. Results obtained for the compounds (L)-(4-acetamido-phenyl)-2-oxo-thiazolidine-4-carboxylate (compound A) in accordance with the present invention and the known analgesic paracetamol (compound B) in tests I and II above are shown in the following table.

inflamed rat hind-paw = experiment: Test II: Randall-Selitto Test on the inflamed rat hind-paw; format: in vivo; details: po
Excerpt: (II) The Randall-Selitto Test on the inflamed rat hind-paw (Arch. Int. Pharmacodyn. 61, 409-419, 1957).
as §1

[2] = system: GOT (Glutamate-Oxalacetate-Transaminase); experiment: Hepatoxicity: GOT (Glutamate-Oxalacetate-Transaminase) level in mouse serum; format: in vivo
Procedure: (§2) Thus on administration of 1'000 mg/kg p.o. of COMPOUND A in accordance with the invention to mice, no increase in GOT and GPT levels over levels in untreated controls (40 to 80 units/liter) is observed and no deaths are recorded. In contrast on administration of compound B (paracetamol) at a dosage of 560 mg/kg p.o., GOT levels are elevated to 3'800 units/liter and GPT levels are elevated to 3'000 units and on administration of compound B at a dosage of 1'000 mg/kg p.o., death of 2 out of 5 test animals is recorded.

[3] = Deaths after oral administration to mice; format: in vivo, mouse; details: 1'000 mg/kg p.o.
[4] = system: GPT (Glutamate-Pyruvate-Transaminase); experiment: Hepatoxicity: GPT (Glutamate-Pyruvate-Transaminase) level in mouse serum; format: in vivo
Procedure: as §2

[5] = high dosages, cited from earlier work
[6] = mice, 1'000 mg/kg p.o., untreated controls 40 to 80 units/liter

Row | SMILES | ED50 ([1]; 1 hr.) | ED50 ([1]; 3 hrs.) | ED50 ([1]; 5 hrs.) | ED50 (inflamed rat hind-paw) | increase in GOT levels over levels in untreated controls [2, 6] | deaths [3] | increase in GPT levels over levels in untreated controls [4, 6] | GOT levels ([2]; mouse, in vivo, po, 560 mg/kg) | death of test animals [3] | GPT levels ([4]; mouse, in vivo, po, 560 mg/kg) | death ([5]; following liver damage) | damage of the liver [5]
1 | CC(=O)Nc1ccc(OC(=O)[C@@H]2CSC(=O)N2)cc1 [COMPOUND A, (L)-(4-acetamido-phenyl)-2-oxo-thiazolidine-4-carboxylate] | ~162 mg/kg | 162 mg/kg | 264 mg/kg | 310 mg/kg | no increase | no deaths | no increase | – | – | – | – | –
2 | CC(=O)Nc1ccc(O)cc1 [COMPOUND B, N-(4-hydroxyphenyl)acetamide] | 75 mg/kg | 142 mg/kg | 261 mg/kg | 203 mg/kg | – | – | – | 3'800 units/liter | 2 out of 5 | 3'000 units | may lead to death | extensive damage of the liver
